Results taken from the supplement of paper PMC11451515.

Test system: P12-Ichikawa
Assay: cell viability relative to DMSO control; higher = less cytotoxic
Conditions: 48 h
Outline: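 Cells were incubated for 48 h at 37°C before CellTiter-Glo One luminescence was read. The cells were NOMO1 or SEM (500 cells/well) or P12-Ichikawa (1000 cells/well) leukemia cells, adapted for at least four passages in each medium and seeded in 1536-well plates (5 μl). Dosing used library compounds in DMSO applied by pin over 11 threefold points, 47 μM to 0.79 nM. Viability is the per-plate percentage of DMSO wells, with cell-free wells as background.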

[1] = HPLM + 10% dialyzed FBS, 0.000781 µM
[2] = HPLM + 10% dialyzed FBS, 0.00234 µM
[3] = HPLM + 10% dialyzed FBS, 0.00702 µM
[4] = HPLM + 10% dialyzed FBS, 0.0211 µM
[5] = HPLM + 10% dialyzed FBS, 0.0632 µM
[6] = HPLM + 10% dialyzed FBS, 0.19 µM
[7] = HPLM + 10% dialyzed FBS, 0.569 µM
[8] = HPLM + 10% dialyzed FBS, 1.71 µM
[9] = HPLM + 10% dialyzed FBS, 5.12 µM
[10] = HPLM + 10% dialyzed FBS, 15.4 µM
[11] = HPLM + 10% dialyzed FBS, 46.1 µM
[12] = RPMI 5 mM glucose + 10% FBS, 0.000781 µM
[13] = RPMI 5 mM glucose + 10% FBS, 0.00234 µM
[14] = RPMI 5 mM glucose + 10% FBS, 0.00702 µM
[15] = RPMI 5 mM glucose + 10% FBS, 0.0211 µM
[16] = RPMI 5 mM glucose + 10% FBS, 0.0632 µM
[17] = RPMI 5 mM glucose + 10% FBS, 0.19 µM
[18] = RPMI 5 mM glucose + 10% FBS, 0.569 µM
[19] = RPMI 5 mM glucose + 10% FBS, 1.71 µM
[20] = RPMI 5 mM glucose + 10% FBS, 5.12 µM
[21] = RPMI 5 mM glucose + 10% FBS, 15.4 µM
[22] = RPMI 5 mM glucose + 10% FBS, 46.1 µM
[23] = RPMI 5 mM glucose + 10% dialyzed FBS, 0.000781 µM
[24] = RPMI 5 mM glucose + 10% dialyzed FBS, 0.00234 µM
[25] = RPMI 5 mM glucose + 10% dialyzed FBS, 0.00702 µM
[26] = RPMI 5 mM glucose + 10% dialyzed FBS, 0.0211 µM
[27] = RPMI 5 mM glucose + 10% dialyzed FBS, 0.0632 µM
[28] = RPMI 5 mM glucose + 10% dialyzed FBS, 0.19 µM
[29] = RPMI 5 mM glucose + 10% dialyzed FBS, 0.569 µM
[30] = RPMI 5 mM glucose + 10% dialyzed FBS, 1.71 µM
[31] = RPMI 5 mM glucose + 10% dialyzed FBS, 5.12 µM
[32] = RPMI 5 mM glucose + 10% dialyzed FBS, 15.4 µM
[33] = RPMI 5 mM glucose + 10% dialyzed FBS, 46.1 µM

SMILES	cell viability [1]	cell viability [2]	cell viability [3]	cell viability [4]	cell viability [5]	cell viability [6]	cell viability [7]	cell viability [8]	cell viability [9]	cell viability [10]	cell viability [11]	cell viability [12]	cell viability [13]	cell viability [14]	cell viability [15]	cell viability [16]	cell viability [17]	cell viability [18]	cell viability [19]	cell viability [20]	cell viability [21]	cell viability [22]	cell viability [23]	cell viability [24]	cell viability [25]	cell viability [26]	cell viability [27]	cell viability [28]	cell viability [29]	cell viability [30]	cell viability [31]	cell viability [32]	cell viability [33]
CC(=O)OC[C@@H]1O[C@H]([C@H](OC(C)=O)[C@@H]1OC(C)=O)N2\C=C/C(=O)NC2=O	119%	120%	128%	122%	114%	120%	110%	110%	113%	106%	71.8%	121%	117%	121%	116%	117%	108%	102%	113%	108%	114%	98.3%	120%	106%	116%	111%	111%	111%	111%	108%	99.7%	104%	92%
CN(C)C/C=C/C(=O)Nc1ccc(C(=O)Nc2cccc(Nc3ncc(Cl)c(-c4c[nH]c5ccccc45)n3)c2)cc1	81.9%	85.6%	85.8%	94.8%	82.5%	78.6%	17.3%	10.2%	4.95%	3.8%	3.94%	78%	85.3%	84.2%	89%	92.9%	77.1%	12.3%	6.62%	3.34%	2.59%	3.22%	79.7%	82.9%	93%	97%	93.2%	77.6%	17.9%	11.6%	5.08%	2.82%	3.14%
O=C(c1cncc(Br)c1)N1CCC(N2CCCC2)CC1	107%	97.4%	106%	103%	105%	99.9%	100%	101%	100%	95.1%	89.9%	93.6%	99.7%	100%	95.9%	98.2%	96.7%	100%	94%	103%	92.5%	90.3%	95.9%	102%	99.6%	99.6%	95.2%	95.1%	96.7%	100%	92%	87.1%	92%
Cc1ccc(C(=O)Nc2cccc(C(F)(F)F)c2)cc1Nc1nc(-c2cccnc2)nc2c1cnn2C	88.1%	90.8%	93.7%	89.5%	91.2%	90%	86.6%	85.9%	83.3%	86.7%	84%	73.1%	83.8%	88.9%	85.6%	83.9%	82.8%	87.5%	88.2%	79.5%	78.8%	74.5%	90.8%	85.2%	87.6%	86.7%	95.5%	84.7%	90.9%	96.7%	75.8%	76.8%	86.5%
CCC(C)CCCCC(=O)N[C@@H](CCN)C(=O)NC(C(=O)N[C@H](CCN)C(=O)N[C@@H]1CCNC(=O)C([C@@H](C)O)NC(=O)[C@@H](CCN)NC(=O)[C@@H](CCN)NC(=O)[C@@H](CC(C)C)NC(=O)[C@H](Cc2ccccc2)NC(=O)[C@H](CCN)NC1=O)[C@@H](C)O (stereo not given in full)	114%	118%	117%	117%	122%	128%	129%	124%	129%	128%	126%	114%	113%	115%	120%	135%	135%	134%	131%	132%	132%	123%	111%	110%	112%	115%	117%	117%	120%	134%	135%	123%	124%
O=C(O)c1ccc(O)c2ncc(N3CCOCC3)cc12	106%	105%	100%	108%	107%	103%	97.2%	99.9%	98.6%	95.6%	7.44%	102%	99.1%	96.8%	92.8%	95.7%	97.6%	96.6%	94.2%	87.8%	85.2%	9.83%	98.5%	95.2%	104%	90.9%	98%	97.7%	105%	102%	81.8%	84.7%	5.31%
Nc1n[nH]c2nnc(-c3c(-c4ccccc4)nn4ccccc34)cc12	104%	117%	112%	120%	126%	126%	120%	118%	90%	18.8%	10.6%	109%	116%	123%	118%	134%	119%	141%	138%	95.3%	17.7%	9.91%	113%	116%	128%	121%	133%	134%	136%	131%	132%	53.6%	17.9%
COC1=CC=C(C=C1)/C2=C(O)/C(=O)C3=C(O)C=C(O)C(=C3O2)CC=C(C)C	115%	115%	115%	117%	121%	122%	121%	119%	113%	87.9%	122%	108%	111%	105%	110%	108%	115%	114%	120%	123%	67%	121%	118%	110%	122%	116%	127%	115%	125%	128%	117%	95.8%	118%
CNc1nc(-c2ccc3c(N)n[nH]c3c2)cc(N2C[C@@H](C(=O)NC3CCCCC3)CC[C@H]2C)n1	97.8%	85.9%	90.8%	95.6%	98.6%	90.8%	83.5%	76.9%	75.3%	72.3%	13.4%	76.7%	91.4%	82.5%	86.5%	78.6%	65.6%	64%	57.7%	54.9%	51%	12.8%	83.5%	86.6%	79.9%	86.5%	88.4%	69.9%	65.5%	63.5%	59.8%	52.1%	27.8%
COc1ccccc1[C@H](c1cccc2ccccc12)[C@@](C)(C#N)C(=O)N1CCC(c2cccc(C(F)(F)F)c2)CC1	99.7%	109%	104%	115%	104%	113%	107%	107%	92.7%	84.5%	68.8%	108%	115%	104%	107%	119%	99.8%	107%	92.4%	80.3%	72.7%	60.7%	108%	108%	117%	112%	122%	111%	108%	112%	88.7%	71.2%	47.9%
Cc1cn2cc(C(=O)N(C)CCO)cc(N[C@@H]3CCOc4cccc(C)c43)c2n1	107%	106%	109%	112%	111%	119%	118%	115%	119%	110%	117%	105%	119%	107%	113%	118%	117%	115%	123%	115%	105%	114%	106%	109%	105%	116%	118%	114%	118%	115%	110%	118%	109%
Cc1ccc2nc(NCCN)c3ncc(C)n3c2c1	104%	105%	106%	101%	106%	104%	103%	105%	109%	94.8%	42.5%	97.8%	111%	105%	107%	107%	108%	102%	104%	102%	97.4%	23.2%	102%	110%	104%	105%	104%	91%	101%	102%	103%	101%	33.7%
CCCCCCNC(=O)N1\C=C(F)/C(=O)NC1=O	122%	124%	123%	127%	121%	129%	126%	124%	113%	107%	89.3%	–	–	–	–	–	–	–	–	–	–	–	108%	118%	122%	122%	127%	117%	129%	121%	116%	91.8%	81.8%
CCN(CC)CCNC(=O)c1c(C)[nH]c(/C=C2\C(=O)Nc3ccc(F)cc32)c1C	106%	102%	106%	103%	104%	36.8%	21.5%	6.34%	9.77%	3.45%	2.39%	106%	105%	114%	103%	118%	58.8%	34.1%	12.6%	14.6%	4.54%	2.44%	114%	113%	109%	112%	113%	51.3%	31%	12.2%	14.3%	4.09%	2.75%
OC[C@H]1O[C@H](C[C@@H]1O)N2/C=C(C(=O)NC2=O)/C(F)(F)F	120%	116%	119%	110%	117%	98%	75.9%	52.9%	17.4%	12.5%	6.49%	126%	113%	118%	114%	123%	121%	112%	107%	38.6%	15.7%	8.41%	107%	114%	114%	113%	105%	107%	89.6%	93.3%	23.1%	16.8%	11.1%
CCCCCNC(=N)N/N=C/c1c[nH]c2ccc(OC)cc12	122%	119%	121%	130%	126%	139%	128%	137%	121%	59.8%	20.2%	–	–	–	–	–	–	–	–	–	–	–	–	–	–	–	–	–	–	–	–	–	–
